Data published in patent publication US9067966B2, “Lupeol-type triterpene derivatives as antivirals” (priority 2009, dated 2015).
Read-outs that look alike come from different tables or passages of the source.

Key:
Type in all cases: cell-based
[1] = tested on: HIV-1 strain NL4-3; assay: Anti-HIV-1 luciferase indicator assay in MT2 cells, NL4-3; settings: viral strain NL4-3; for IC50: Human immunodeficiency virus 1, NL43, MT2, MT2 cells; for TI / Safety Index (CC50/IC50): MT2 cells
Protocol: (§1) Compound was dissolved in DMSO to make 30 mM stock. Then the 30 mM stock is further diluted to 4 mM using DMSO. The 4 mM stock was used as the top concentration to carry out an 11-point, 3-fold dilution scheme using DMSO in a 96-well plate to make the compound dose plate. Compounds in the dose plate were transferred to a new 96-well plate (working plate) containing PBS with 0.05% pluronic acid. From this working plate, the compound solution was transferred to the 384-well assay plates.
(§2) Control compounds used in compound control wells were prepared and added to assay plates individually.
(§3) MT2 cells were mixed with HIV-1 strain NL4-3 (or IIIB, or CNHN24) and the cell/virus mixture was added to the aforementioned antivirus assay plates. After incubation in a 37° C., 5% CO2 incubator, the supernatant from the assay plate was transferred to a new 384-well plate containing the indicator cells with a fire fly luciferase gene under HIV-1 LTR control. The expression level of luciferase was related to HIV-1 infectivity and was measured by Bright-Glo kit (Promega).
(§4) Therapeutic index (TI) was determined by taking ratio of CC50/IC50

[2] = tested on: HIV-1 strain IIIB; assay: Anti-HIV-1 luciferase indicator assay in MT2 cells, IIIB; settings: for IC50: Human immunodeficiency virus 1, IIIB; for TI / Safety Index (CC50/IC50): MT2 cells
Protocol: as §1, §2, §3, §4

[3] = tested on: HIV-1 strain CNHN24; assay: Anti-HIV-1 luciferase indicator assay in MT2 cells, CNHN24; settings: for TI / Safety Index (CC50/IC50): MT2 cells
Protocol: as §1, §2, §3, §4

[4] = in vitro; settings: human, CC50
Protocol: as §1
For cytotoxicity assay the same amount of MT2 cells as in antivirus assay but without HIV-1 virus were added to the cytotoxicity plates. The cytotoxicity was measured by Cell Titer-Glo cell viability assay (Promega).

[5] = MT2, MT2 cells, viral strain II B, read-out: IC50
[6] = Human immunodeficiency virus 1, MT2, MT2 cells, viral strain CNHN24, read-out: IC50

| Compound | IC50 [1] [nM] | TI / Safety Index (CC50/IC50) [1] | IC50 [2, 5] [nM] | TI / Safety Index (CC50/IC50) ([2]; viral strain II B) | IC50 [3, 6] [nM] | TI / Safety Index (CC50/IC50) ([3]; viral strain CNHN24) | CC50 [4] [nM] | IC50 ([1]; read-out: IC50) [nM] | IC50 ([2]; MT2) [nM] | IC50 ([3]; Human immunodeficiency virus 1, MT2) [nM] |
| --- | --- | --- | --- | --- | --- | --- | --- | --- | --- | --- |
| C=C(C)[C@@H]1CC[C@]2(C(=O)N[C@H]3C[C@@H](C(=O)N4CCCCC4)C3(C)C)CC[C@]3(C)[C@H](CC[C@@H]4[C@@]5(C)CC[C@H](OC(=O)CC(C)(C)C(=O)O)C(C)(C)[C@@H]5CC[C@]43C)[C@@H]12 [Example 12, 4-((1R,3aS,5aR,5bR,7aR,9S,11aR,11bR,13aR,13bR)-3a-((1S,3R)-2,2-dimethyl-3-(piperidine-1-carbonyl)cyclobutylcarbamoyl)-5a,5b,8,8,11a-pentamethyl-1-(prop-1-en-2-yl)icosahydro-1H-cyclopenta[a]chrysen-9-yloxy)-2,2-dimethyl-4-oxobutanoic acid] | 21 | 316 | 29 | 227 | 17 | 383 | > 20000 | – | – | – |
| C=C(C)[C@@H]1CC[C@]2(C(=O)N3CCC(Cc4ccccc4)(C(=O)OCC)CC3)CC[C@]3(C)[C@H](CC[C@@H]4[C@@]5(C)CC[C@H](OC(=O)CC(C)(C)C(=O)O)C(C)(C)[C@@H]5CC[C@]43C)[C@@H]12 [Example 57, 4-((1R,3aS,5aR,5bR,7aR,9S,11aR,11bR,13aR,13bR)-3a-(4-benzyl-4-(ethoxycarbonyl)piperidine-1-carbonyl)-5a,5b,8,8,11a-pentamethyl-1-(prop-1-en-2-yl)icosahydro-1H-cyclopenta[a]chrysen-9-yloxy)-2,2-dimethyl-4-oxobutanoic acid] | – | 23 | 590 | 33 | 1070 | 20 | > 20000 | 857 | – | – |
| C=C(C)[C@@H]1CC[C@]2(C(=O)N3CCN(CC)CC3)CC[C@]3(C)[C@H](CC[C@@H]4[C@@]5(C)CC[C@H](OC(=O)C6CC(C(=O)O)C6(C)C)C(C)(C)[C@@H]5CC[C@]43C)[C@@H]12 (stereo partly drawn) [Example 54, 3-(((1R,3aS,5aR,5bR,7aR,9S,11aR,11bR,13aR,13bR)-3a-(4-ethylpiperazine-1-carbonyl)-5a,5b,8,8,11a-pentamethyl-1-(prop-1-en-2-yl)icosahydro-1H-cyclopenta[a]chrysen-9-yloxy)carbonyl)-2,2-dimethylcyclobutanecarboxylic acid] | – | 1538 | 5 | 4000 | 24 | 833 | > 20000 | 13 | – | – |
| C=C(C)[C@@H]1CC[C@]2(C(=O)N[C@@H]3CC[C@H](CN4CCC(Cc5ccccc5)CC4)C3)CC[C@]3(C)[C@H](CC[C@@H]4[C@@]5(C)CC[C@H](OC(=O)CCCC(=O)O)C(C)(C)[C@@H]5CC[C@]43C)[C@@H]12 [Example 33, 5-((1R,3aS,5aR,5bR,7aR,9S,11aR,11bR,13aR,13bR)-3a-((1R,3S)-3-((4-benzylpiperidin-1-yl)methyl)cyclopentylcarbamoyl)-5a,5b,8,8,11a-pentamethyl-1-(prop-1-en-2-yl)icosahydro-1H-cyclopenta[a]chrysen-9-yloxy)-5-oxopentanoic acid] | – | 2.98 | 6700 | 2.98 | 6700 | 2.98 | 20000 | 6700 | – | – |
| C=C(C)[C@@H]1CC[C@]2(C(=O)N[C@H]3C[C@@H](C(=O)N4CCOCC4)C3(C)C)CC[C@]3(C)[C@H](CC[C@@H]4[C@@]5(C)CC[C@H](O)C(C)(C)[C@@H]5CC[C@]43C)[C@@H]12 [Example 8, (1R,3aS,5aR,5bR,7aR,9S,11aR,11bR,13aR,13bR)-N-((1S,3R)-2,2-dimethyl-3-(morpholine-4-carbonyl)cyclobutyl)-9-hydroxy-5a,5b,8,8,11a-pentamethyl-1-(prop-1-en-2-yl)icosahydro-1H-cyclopenta[a]chrysene-3a-carboxamide] | – | 9 | 3140 | 6 | 2830 | 7 | 20000 | 2200 | – | – |
| C=C(C)[C@@H]1CC[C@]2(C(=O)N[C@H]3C[C@@H](C(=O)N4CCOCC4)C3(C)C)CC[C@]3(C)[C@H](CC[C@@H]4[C@@]5(C)CC[C@H](OC(=O)CC(C)(C)C(=O)O)C(C)(C)[C@@H]5CC[C@]43C)[C@@H]12 [Example 9, 4-((1R,3aS,5aR,5bR,7aR,9S,11aR,11bR,13aR,13bR)-3a-((1S,3R)-2,2-dimethyl-3-(morpholine-4-carbonyl)cyclobutylcarbamoyl)-5a,5b,8,8,11a-pentamethyl-1-(prop-1-en-2-yl)icosahydro-1H-cyclopenta[a]chrysen-9-yloxy)-2,2-dimethyl-4-oxobutanoic acid] | 5 | 3579 | 7 | 2658 | 8 | 2429 | > 20000 | – | – | – |
| C=C(C)[C@@H]1CC[C@]2(C(=O)N[C@@H]3C=C[C@H](CN4CCOCC4)C3)CC[C@]3(C)[C@H](CC[C@@H]4[C@@]5(C)CC[C@H](OC(=O)CC(C)(C)C(=O)O)C(C)(C)[C@@H]5CC[C@]43C)[C@@H]12 [Example 95, 2,2-dimethyl-4-oxo-4-((1R,3aS,5aR,5bR,7aR,9S,11aR,11bR,13aR,13bR)-5a,5b,8,8,11a-pentamethyl-3a-((1S,4R)-4-(morpholinomethyl)cyclopent-2-enylcarbamoyl)-1-(prop-1-en-2-yl)icosahydro-1H-cyclopenta[a]chrysen-9-yloxy)butanoic acid] | – | 5000 | – | 20000 | – | – | > 20000 | 4 | 1 | 3 |
| C=C(C)[C@@H]1CC[C@]2(C(=O)N[C@H]3C[C@@H](C(=O)N4CCCCC4)C3(C)C)CC[C@]3(C)[C@H](CC[C@@H]4[C@@]5(C)CC[C@H](O)C(C)(C)[C@@H]5CC[C@]43C)[C@@H]12 [Example 11, (1R,3aS,5aR,5bR,7aR,9S,11aR,11bR,13aR,13bR)-N-((1S,3R)-2,2-dimethyl-3-(piperidine-1-carbonyl)cyclobutyl)-9-hydroxy-5a,5b,8,8,11a-pentamethyl-1-(prop-1-en-2-yl)icosahydro-1H-cyclopenta[a]chrysene-3a-carboxamide] | – | 4.7 | 5670 | 3.5 | 5880 | 3.4 | > 20000 | 4250 | – | – |
| C=C(C)[C@@H]1CC[C@]2(C(=O)N3CCC(CC)(C(=O)OCC)CC3)CC[C@]3(C)[C@H](CC[C@@H]4[C@@]5(C)CC[C@H](OC(=O)CC(C)(C)C(=O)O)C(C)(C)[C@@H]5CC[C@]43C)[C@@H]12 [Example 74, 4-((1R,3aS,5aR,5bR,7aR,9S,11aR,11bR,13aR,13bR)-3a-(4-(ethoxycarbonyl)-4-ethylpiperidine-1-carbonyl)-5a,5b,8,8,11a-pentamethyl-1-(prop-1-en-2-yl)icosahydro-1H-cyclopenta[a]chrysen-9-yloxy)-2,2-dimethyl-4-oxobutanoic acid] | – | 47 | 86 | 90 | 163 | 47 | 7760 | 165 | – | – |
